Laboratory results from the supplement of paper PMC10331698.
± gives the standard deviation of the averaged measurements.

Key:
Test in all cases: level (log10 ratio to DMSO vehicle control); higher = higher biomarker level / cell amount than vehicle control
[1] = compound: NS(=O)(=O)C(F)(F)C(F)(F)C(F)(F)C(F)(F)C(F)(F)C(F)(F)F [Perfluorohexanesulfonamide]; conditions: in DMSO
Procedure: (§1)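 BioMAP Diversity Plus panel of 12 human primary cell co-culture systems (3C, 4H, LPS, SAg, BT, BF4T, BE3C, CASM3C, HDF3CGF, KF3CT, MyoF, Mphg). Compounds were added 1 h before stimulation and left for 24 h (MyoF 48 h; BT 72 h for soluble read-outs or 6 d for IgG). Biomarkers were read by ELISA, cytotoxicity by SRB, PBMC viability and proliferation by Alamar Blue. Each well value was divided by the mean of 8 DMSO control wells on the same plate and log10 transformed; duplicate blinded samples were tested at 4 concentrations.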

[2] = compound: NC(=O)C(F)(F)C(F)(F)C(F)(F)C(F)(F)F [Nonafluoropentanamide]; conditions: in DMSO
Procedure: as §1

[3] = compound: COC(=O)C(F)(F)C(F)(F)OC(F)(C(F)(F)F)C(F)(F)OC(F)=C(F)F [Methyl perfluoro(3-(1-ethenyloxypropan-2-yloxy)propanoate)]; conditions: in DMSO
Procedure: as §1

[4] = compound: C=CC(=O)OCC(F)(F)C(F)(F)C(F)(F)COC(=O)C=C [1H,1H,5H,5H-Perfluoro-1,5-pentanediol diacrylate]; conditions: 6700 nM; in DMSO
Procedure: as §1

[5] = compound: NC(=O)C(F)(F)C(F)(F)C(F)(F)C(F)F; conditions: in DMSO
Procedure: as §1

[6] = compound: FC(F)(F)C(F)(F)C(F)(F)C(F)(F)C(F)(F)C(F)(F)C(F)(F)I [1-Iodopentadecafluoroheptane]; conditions: in DMSO
Procedure: as §1

[7] = compound: FC(F)(F)C(F)(F)C(F)(F)CC1CO1 [1H,1H-Heptafluorobutyl epoxide]; conditions: in DMSO
Procedure: as §1

[8] = compound: FC(F)(F)C(F)(F)CNCC(F)(F)C(F)(F)F [Bis(1H,1H-perfluoropropyl)amine]; conditions: in DMSO
Procedure: as §1

[9] = compound: O=C(O)C=CC(F)(C(F)(F)F)C(F)(F)F [3-(Perfluoroisopropyl)-2-propenoic acid]; conditions: in DMSO
Procedure: as §1

[10] = compound: O=S(=O)(Cl)C(F)(F)C(F)(F)C(F)(F)C(F)(F)C(F)(F)C(F)(F)C(F)(F)C(F)(F)F [Perfluoro-1-octanesulfonyl chloride]; conditions: in DMSO
Procedure: as §1

[11] = compound: FC(F)(F)C(F)(F)C(F)(F)C(F)(F)C(F)(F)C(F)(F)CC1CO1 [3-(Perfluorohexyl)-1,2-epoxypropane]; conditions: in DMSO
Procedure: as §1

[12] = compound: NC(=O)C(F)(F)C(F)(F)C(F)(F)C(F)(F)C(N)=O [Octafluoroadipamide]; conditions: in DMSO
Procedure: as §1

[13] = compound: O=S(=O)(O)CCC(F)(F)C(F)(F)C(F)(F)C(F)(F)C(F)(F)C(F)(F)F [6:2 Fluorotelomer sulfonic acid]; conditions: in DMSO
Procedure: as §1

[14] = compound: C=C(C)C(=O)OCCC(F)(F)C(F)(F)C(F)(F)C(F)(F)C(F)(F)C(F)(F)F [6:2 Fluorotelomer methacrylate]; conditions: in DMSO
Procedure: as §1

[15] = compound: O=S(=O)(O)C(F)(F)C(F)(F)C(F)(F)C(F)(F)C(F)(F)C(F)(F)C(F)(F)C(F)(F)C(F)(F)C(F)(F)F [Sodium perfluorodecanesulfonate]; conditions: in DMSO
Procedure: as §1

[16] = compound: O=C(O)C(F)(F)C(F)(F)C(F)(F)C(F)(F)C(F)(F)C(F)(F)C(F)(F)C(F)(F)C(F)(F)C(F)F [11-H-Perfluoroundecanoic acid]; conditions: in DMSO
Procedure: as §1

[17] = compound: O=S(=O)(F)C(F)(F)C(F)(F)C(F)(F)C(F)(F)C(F)(F)C(F)(F)C(F)(F)C(F)(F)F [Perfluorooctanesulfonyl fluoride]; conditions: in DMSO
Procedure: as §1

[18] = compound: OCC(F)(F)C(F)(F)C(F)(F)CO [Hexafluoroamylene glycol]; conditions: in DMSO
Procedure: as §1

[19] = compound: FC(F)(F)C(F)(F)C(F)(F)CI [Heptafluorobutyl iodide]; conditions: in DMSO
Procedure: as §1

For HDF3CGF:SRB, the “level (log10)” value ([1]; 6700 nM) was -0.0045 ± 0.0064, the “level (log10)” value ([1]; 20000 nM) was -0.009 ± 0.052 and the “level (log10)” value ([1]; 60000 nM) was -0.002 ± 0.033. The “level (log10)” value ([2]; 6700 nM) was 0.024 ± 0.0042, the “level (log10)” value ([2]; 20000 nM) was 0.022 ± 0.011 and the “level (log10)” value ([2]; 60000 nM) was 0.0245 ± 0.005. The “level (log10)” value ([3]; 6700 nM) was 0.0845 ± 0.0035, the “level (log10)” value ([3]; 20000 nM) was 0.081 ± 0.0042 and the “level (log10)” value [4] was -0.458 ± 0.051. For the same test system, the “level (log10)” value ([5]; 6700 nM) was -0.007 ± 0.0042, the “level (log10)” value ([5]; 20000 nM) was 0.0065 ± 0.016 and the “level (log10)” value ([5]; 60000 nM) was -0.0035 ± 0.015. The “level (log10)” value ([6]; 6700 nM) was 0.013 ± 0.021, the “level (log10)” value ([6]; 20000 nM) was -0.002 ± 0.016 and the “level (log10)” value ([7]; 6700 nM) was -0.0095 ± 0.029. For the same test system, the “level (log10)” value ([7]; 20000 nM) was -0.0105 ± 0.0021, the “level (log10)” value ([7]; 60000 nM) was 0.0375 ± 0.0064 and the “level (log10)” value ([8]; 6700 nM) was -0.0275 ± 0.0078. The “level (log10)” value ([8]; 20000 nM) was 0.008 ± 0.0014, the “level (log10)” value ([8]; 60000 nM) was 0.0145 ± 0.05 and the “level (log10)” value ([9]; 6700 nM) was -0.014 ± 0.055. For the same test system, the “level (log10)” value ([9]; 20000 nM) was 0.0205 ± 0.011, the “level (log10)” value ([9]; 60000 nM) was -0.0055 ± 0.022 and the “level (log10)” value ([10]; 6700 nM) was 0.015 ± 0.021. For the same test system, the “level (log10)” value ([10]; 20000 nM) was -0.0095 ± 0.005, the “level (log10)” value ([10]; 60000 nM) was -0.0345 ± 0.035 and the “level (log10)” value ([11]; 6700 nM) was -0.001 ± 0.031. The “level (log10)” value ([11]; 20000 nM) was -0.0035 ± 0.015, the “level (log10)” value ([11]; 60000 nM) was -0.006 ± 0.04 and the “level (log10)” value ([12]; 6700 nM) was -0.0135 ± 0.047. The “level (log10)” value ([12]; 20000 nM) was -0.0225 ± 0.066, the “level (log10)” value ([12]; 60000 nM) was -0.0195 ± 0.046 and the “level (log10)” value ([13]; 6700 nM) was 0.0055 ± 0.044. The “level (log10)” value ([13]; 20000 nM) was 0.0255 ± 0.056, the “level (log10)” value ([13]; 60000 nM) was 0.023 ± 0.085 and the “level (log10)” value ([14]; 6700 nM) was 0.02 ± 0.0071. For the same test system, the “level (log10)” value ([14]; 20000 nM) was 0.0315 ± 0.005, the “level (log10)” value ([14]; 60000 nM) was 0.033 ± 0.013 and the “level (log10)” value ([15]; 1500 nM) was 0.014 ± 0.0099. For the same test system, the “level (log10)” value ([15]; 4400 nM) was -0.0075 ± 0.035, the “level (log10)” value ([15]; 13000 nM) was 0.104 ± 0.0092 and the “level (log10)” value ([15]; 40000 nM) was 0.198. For the same test system, the “level (log10)” value ([16]; 6700 nM) was 0.03 ± 0.0014, the “level (log10)” value ([16]; 20000 nM) was 0.111 ± 0.024 and the “level (log10)” value ([17]; 6700 nM) was 0.017 ± 0.0014. The “level (log10)” value ([17]; 20000 nM) was 0.0365 ± 0.025, the “level (log10)” value ([17]; 60000 nM) was 0.043 ± 0.034 and the “level (log10)” value ([18]; 6700 nM) was 0.0095 ± 0.052. The “level (log10)” value ([18]; 20000 nM) was 0.0215 ± 0.06, the “level (log10)” value ([18]; 60000 nM) was 0.02 ± 0.061 and the “level (log10)” value ([19]; 6700 nM) was -0.0315 ± 0.012. The “level (log10)” value ([19]; 20000 nM) was 0.0025 ± 0.037 and the “level (log10)” value ([19]; 60000 nM) was 0.0275 ± 0.04.
With KF3CT:CXCL8/IL-8 the “level (log10)” value ([1]; 6700 nM) was -0.039 ± 0.023, the “level (log10)” value ([1]; 20000 nM) was -0.0345 ± 0.0092 and the “level (log10)” value ([1]; 60000 nM) was -0.0395 ± 0.03. The “level (log10)” value ([2]; 6700 nM) was -0.0465 ± 0.036, the “level (log10)” value ([2]; 20000 nM) was -0.03 ± 0.014 and the “level (log10)” value ([2]; 60000 nM) was -0.0165 ± 0.03. For the same test system, the “level (log10)” value ([3]; 6700 nM) was 0.001 ± 0.025, the “level (log10)” value ([3]; 20000 nM) was 0.034 ± 0.014 and the “level (log10)” value [4] was -0.041 ± 0.027. The “level (log10)” value ([5]; 6700 nM) was -0.009 ± 0.0028, the “level (log10)” value ([5]; 20000 nM) was 0.011 ± 0.011 and the “level (log10)” value ([5]; 60000 nM) was 0.019 ± 0.011. The “level (log10)” value ([6]; 6700 nM) was 0.0135 ± 0.0021, the “level (log10)” value ([6]; 20000 nM) was 0.014 ± 0.0028 and the “level (log10)” value ([7]; 6700 nM) was -0.021 ± 0.027. The “level (log10)” value ([7]; 20000 nM) was -0.0135 ± 0.03, the “level (log10)” value ([7]; 60000 nM) was 0.0015 ± 0.0035 and the “level (log10)” value ([8]; 6700 nM) was -0.0005 ± 0.005. The “level (log10)” value ([8]; 20000 nM) was -0.0065 ± 0.0092, the “level (log10)” value ([8]; 60000 nM) was 0.0115 ± 0.015 and the “level (log10)” value ([9]; 6700 nM) was 0.001 ± 0.013. For the same test system, the “level (log10)” value ([9]; 20000 nM) was 0.0085 ± 0.028, the “level (log10)” value ([9]; 60000 nM) was 0.018 ± 0.0014 and the “level (log10)” value ([10]; 6700 nM) was 0.006 ± 0.0042. The “level (log10)” value ([10]; 20000 nM) was 0.0095 ± 0.016, the “level (log10)” value ([10]; 60000 nM) was 0.0615 ± 0.025 and the “level (log10)” value ([11]; 6700 nM) was 0.012 ± 0.018. For the same test system, the “level (log10)” value ([11]; 20000 nM) was 0.0175 ± 0.022, the “level (log10)” value ([11]; 60000 nM) was 0.022 ± 0.0042 and the “level (log10)” value ([12]; 6700 nM) was -0.005. The “level (log10)” value ([12]; 20000 nM) was -0.0055 ± 0.0021, the “level (log10)” value ([12]; 60000 nM) was 0.0095 ± 0.023 and the “level (log10)” value ([13]; 6700 nM) was -0.0005 ± 0.035. The “level (log10)” value ([13]; 20000 nM) was -0.001 ± 0.027, the “level (log10)” value ([13]; 60000 nM) was -0.0455 ± 0.022 and the “level (log10)” value ([14]; 6700 nM) was -0.004 ± 0.0057. For the same test system, the “level (log10)” value ([14]; 20000 nM) was 0.0085 ± 0.011, the “level (log10)” value ([14]; 60000 nM) was -0.007 ± 0.011 and the “level (log10)” value ([15]; 1500 nM) was 0 ± 0.044. For the same test system, the “level (log10)” value ([15]; 4400 nM) was -0.0125 ± 0.0064, the “level (log10)” value ([15]; 13000 nM) was -0.0175 ± 0.012 and the “level (log10)” value ([15]; 40000 nM) was -0.0105 ± 0.005. The “level (log10)” value ([16]; 6700 nM) was 0.0005 ± 0.019, the “level (log10)” value ([16]; 20000 nM) was 0.0445 ± 0.012 and the “level (log10)” value ([17]; 6700 nM) was 0.001 ± 0.028. For the same test system, the “level (log10)” value ([17]; 20000 nM) was 0.0005 ± 0.025, the “level (log10)” value ([17]; 60000 nM) was 0.007 ± 0.0071 and the “level (log10)” value ([18]; 6700 nM) was 0.001 ± 0.044. For the same test system, the “level (log10)” value ([18]; 20000 nM) was -0.0015 ± 0.028, the “level (log10)” value ([18]; 60000 nM) was 0.004 ± 0.02 and the “level (log10)” value ([19]; 6700 nM) was -0.0095 ± 0.00071. The “level (log10)” value ([19]; 20000 nM) was -0.0325 ± 0.005 and the “level (log10)” value ([19]; 60000 nM) was -0.015 ± 0.016.
